{
  "source": "patent US20090048194A1",
  "about": "“Vagal Afferent Neurons as Targets for Treatment” (Janssen Pharmaceutica N.V., priority 2005, published 2009)",
  "key": {"[1]": {"test_system": "sham nodose neurons", "test": "Patch clamp recording of octreotide on dissociated sham nodose neurons", "format": "cell-based, Balb/c mice", "details": "for effect on number of action potentials at 2× rheobase: sham nodose neurons", "procedure": "(§1) Balb/c mice were injected intraperitoneally with the retrograde labelling agent cholera toxin B 488 3-7 days prior to experiments. Mice were then anaesthetized with ketamine/xylazine, the spinal cord removed and DRG neurons isolated (T10-T13) for electrophysiological recordings 18-24 hours after their dissociation and incubation, and mounted on the stage of an inverted microscope (Leica DMIRE2)) for both bright-field and fluorescence observation. Cholera toxin labelled neurons were identified by their green fluorescence under the N3 filter system (Leica). Whole cell currents and voltage clamp experiments were performed by using MultiClamp 7A amplifier and digitized with a DigiData 1322A converter (Axon Instruments). Stimulation and data acquisition were obtained by the pClamp 9 program (Axon Instruments). Signals were sampled at 10 kHz or 20 kHz, and low-pass filtered at 4 KHz. The series resistance was compensated. Neurons were excluded from analysis if the seal resistance or access resistance was unstable, or if they fired spontaneous action potentials.\n(§2) Borosilicate glass (Harvard) was pulled with a P97 micropipette puller (Sutter, Calif.), and fire polished by a M 200 microforge (World Precision Instrument) to a tip resistance of 5-10 MΩ. A silver-silver chloride pellet (world Precision Instrument) was placed in the recording dish as the reference electrode. The normal extracellular Kreb's solution contained (in mM): NaCl 118.0, KCl 4.7, NaH2PO4 1.0, NaHCO3 25.0, MgSO4 1.2, CaCl2 2.5, D-Glucose 11.1, with pH adjusted to 7.3 by using NaOH. The normal intracellular solution contained (in mM): HEPES 10.0, KCl 130.0, MgCl2 1.0, CaCl2 1.0, EGTA 2.0, K2ATP 2, Na3GTP 0.2, titrated with KOH to pH 7.25. The extracellular solution for isolating TTX-resistance Na currents composed of (in mM): NaCl 145.0, KCl 4.8, HEPES 10.0, MgCl2 1.0, CaCl2 2.5, D-glucose 11.1, TTX 0.0003, CdCl 0.5, 4-AP 1.0, TEA-Cl 5.0, CsCl 2.0, pH adjusted to 7.3 by using NaOH, and the corresponding intracellular solution was (in mM): EPES 10.0, CsCl 130.0, MgCl2 1.0, CaCl2 1.0, EGTA 2.0, K2ATP 2.0, Na3GTP 0.2, pH adjusted to 7.25 by using CsOH. All experiments were performed at temperature of 30° C.-33° C.\n(§3) Data were analyzed by using pClamp 9 software (Axon Instruments). Neurons were recorded in both current-clamp and voltage-clamp configurations. Voltage clamp recordings were used to generate current-voltage relationships for cells. Current clamp recordings were used to determine the rheobase for action potential firing of neurons. The number of action potentials elicited at 2× rheobase was subsequently assessed in current clamp mode.\n(§4) Nodose neurons were dissociated and cultured in preparation for patch clamp experiments as has been described elsewhere. These nodose neurons were either obtained from Balb/c mice 21 days after infection with Nb or from sham mice, thus enabling a comparison of the effects of octreotide on both sham and Nb-infected nodose neurons.\n(§5) Octreotide (1 μM) was applied to individual neurons via a fast perfusion system. Octreotide's effects were recorded on the cell's resting membrane potential (RMP) and the number of action potentials fired at 2× rheobase of each neuron."}, "[2]": {"test_system": "Nb-infected nodose neurons", "test": "Patch clamp recording of octreotide on dissociated Nb-infected nodose neurons", "format": "cell-based, Balb/c mice", "details": "for effect on number of action potentials at 2× rheobase: infected nodose neurons", "procedure": "as §1, §2, §3, §4, §5"}, "[3]": {"details": "octreotide 1 μM, listed as octreotide"}},
  "data": [
    {"smiles": "C[C@@H](O)[C@@H]1NC(=O)[C@H](CCCCN)NC(=O)[C@@H](Cc2c[nH]c3ccccc23)NC(=O)[C@H](Cc2ccccc2)NC(=O)[C@@H](NC(=O)[C@H](N)Cc2ccccc2)CSSC[C@@H](C(=O)N[C@H](CO)[C@@H](C)O)NC1=O", "note": "[Octreotide, octreotide]", "values": [
      {"measurement": "effect on RMP", "setting": "[1]; sham neurons, octreotide 1 μM", "value": "no significant effect"},
      {"measurement": "resting membrane potential (RMP)", "setting": "[1]; sham neurons, octreotide 1 μM, n=27", "value": "−54.7±2.1", "unit": "mV"},
      {"measurement": "number of action potentials evoked at 2× rheobase (FIG. 23 example)", "setting": "[1]; sham nodose neuron, after 1 μM octreotide, control in Krebs 2", "value": 1, "unit": "action potential"},
      {"measurement": "effect on number of action potentials at 2× rheobase", "setting": "[1]; octreotide 1 μM", "value": "reduced the number of action potentials"},
      {"measurement": "effect on number of action potentials at 2× rheobase", "setting": "[1]; [3]", "value": "reduces the number of action potentials"},
      {"measurement": "difference between the effect of octreotide on sham and infected neurons (action potentials at 2× rheobase)", "setting": "[2]; 1 μM octreotide, sham vs infected, FIG. 24", "value": "no significant difference"},
      {"measurement": "effect on RMP", "setting": "[2]; infected neurons, octreotide 1 μM", "value": "no significant effect"},
      {"measurement": "resting membrane potential (RMP)", "setting": "[2]; infected neurons, octreotide 1 μM, n=25", "value": "−51.7±2.1", "unit": "mV"},
      {"measurement": "number of action potentials evoked at 2× rheobase (FIG. 23 example)", "setting": "[2]; infected nodose neuron, after 1 μM octreotide, control in Krebs 9", "value": 2, "unit": "action potentials"},
      {"measurement": "effect on number of action potentials at 2× rheobase", "setting": "[2]; octreotide 1 μM", "value": "reduced the number of action potentials"},
      {"measurement": "effect on number of action potentials at 2× rheobase", "setting": "[2]; [3]", "value": "reduces the number of action potentials"}
    ]}
  ]
}
